Test results published in US6852673B2, “Herbicidal pyridine compounds” (BASF Aktiengesellschaft, priority 1998, dated 2005).

How the values were obtained:
Assay type in all cases: in vivo
[1] = system: Glycine max (GLXMA); experiment: Pre-emergence herbicidal evaluation, soyabeans
In short: (§1)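 Seeds mixed with potting soil were planted over about one inch of soil per pot, then sprayed with test compound in aqueous acetone at the equivalent of about 0.0125 to 0.4 kg per hectare. Pots were kept under standard greenhouse care and visually rated 2 to 4 weeks after treatment.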

[2] = system: Hordeum vulgare (HORVW); experiment: Pre-emergence herbicidal evaluation, winter barley
In short: as §1

[3] = system: Oryza sativum (ORYSA); experiment: Pre-emergence herbicidal evaluation, rice
In short: as §1

[4] = system: Triticum aestivum (TRZAW); experiment: Pre-emergence herbicidal evaluation, winter wheat
In short: as §1

[5] = system: Zea mays (ZEAMX); experiment: Pre-emergence herbicidal evaluation, maize
In short: as §1

[6] = system: Galium aparine (GALAP); experiment: Pre-emergence herbicidal evaluation, cleaver
In short: as §1

[7] = system: Lamium purpureum (LAMPU); experiment: Pre-emergence herbicidal evaluation, purple deadnettle
In short: as §1

[8] = system: Solanum nigrum (SOLNI); experiment: Pre-emergence herbicidal evaluation, black nightshade
In short: as §1

[9] = system: Stellaria media (STEME); experiment: Pre-emergence herbicidal evaluation, chickweed
In short: as §1

[10] = system: Alopecurus myosuroides (ALOMY); experiment: Pre-emergence herbicidal evaluation, black grass
In short: as §1

[11] = system: Echinochloa grus galli (ECHCG); experiment: Pre-emergence herbicidal evaluation, barnyard grass
In short: as §1

[12] = system: Setaria viridis (SETVI); experiment: Pre-emergence herbicidal evaluation, green foxtail
In short: as §1

[13] = system: Glycine max (GLXMA); experiment: Post-emergence herbicidal evaluation, soyabeans; settings: rated 2 to 4 weeks after treatment
Experimental: [table] [table] […] These acetone solutions are diluted with water and the resulting formulations applied at dosage levels equivalent of about 0.03 to 0.4 kg per hectare of test compound per pot. After spraying the plants are placed on greenhouse benches and are cared for in the usual manner, commensurate with conventional greenhouse practices. From 2 to 4 weeks after treatment, the seedling plants are examined and rated according to the rating system provided above. A rating 0 indicates growth as untreated control, a rating 9 indicates death.

[14] = system: Hordeum vulgare (HORVW); experiment: Post-emergence herbicidal evaluation, winter barley; settings: rated 2 to 4 weeks after treatment
In short: (§2)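 Post-emergence spray of test compound, from acetone solutions diluted in water, at about 0.03 to 0.4 kg/ha per pot, plants then kept under standard greenhouse conditions. Injury rated 2 to 4 weeks after treatment on a 0 (as untreated) to 9 (death) scale.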

[15] = system: Oryza sativum (ORYSA); experiment: Post-emergence herbicidal evaluation, rice; settings: rated 2 to 4 weeks after treatment
In short: as §2

[16] = system: Triticum aestivum (TRZAW); experiment: Post-emergence herbicidal evaluation, winter wheat; settings: rated 2 to 4 weeks after treatment
In short: as §2

[17] = system: Zea mays (ZEAMX); experiment: Post-emergence herbicidal evaluation, maize; settings: rated 2 to 4 weeks after treatment
In short: as §2

[18] = system: Abutilon theophrasti (ABUTH); experiment: Post-emergence herbicidal evaluation, velvetleaf; settings: rated 2 to 4 weeks after treatment
In short: as §2

[19] = system: Ambrosia artemiisifolia (AMBEL); experiment: Post-emergence herbicidal evaluation, ragweed; settings: rated 2 to 4 weeks after treatment
In short: as §2

[20] = system: Ipomoea hederacea (IPOHE); experiment: Post-emergence herbicidal evaluation, morning glory; settings: rated 2 to 4 weeks after treatment
In short: as §2

[21] = system: Lamium purpureum (LAMPU); experiment: Post-emergence herbicidal evaluation, purple deadnettle; settings: rated 2 to 4 weeks after treatment
In short: as §2

[22] = system: Matricaria inodora (MATIN); experiment: Post-emergence herbicidal evaluation, mayweed; settings: rated 2 to 4 weeks after treatment
In short: as §2

[23] = system: Solanum nigrum (SOLNI); experiment: Post-emergence herbicidal evaluation, black nightshade; settings: rated 2 to 4 weeks after treatment
In short: as §2

[24] = system: Alopecurus myosuroides (ALOMY); experiment: Post-emergence herbicidal evaluation, black grass; settings: rated 2 to 4 weeks after treatment
In short: as §2

[25] = system: Digitaria sanguinalis (DIGSA); experiment: Post-emergence herbicidal evaluation, large crabgrass; settings: rated 2 to 4 weeks after treatment
In short: as §2

[26] = system: Echinochloa grus galli (ECHCG); experiment: Post-emergence herbicidal evaluation, barnyard grass; settings: rated 2 to 4 weeks after treatment
In short: as §2

COc1cc(OCC(F)(F)C(F)F)nc(Oc2cc(C(F)(F)F)nn2C)c1 [Example 4, 2-(1-Methyl-3-trifluoromethylpyrazol-5-yloxy)-4-methoxy-6-(2,2,3,3-tetrafluoropropyloxy)pyridine]
GLXMA rating ([1]; dose 0.013 kg/ha): 1 (1 - Trace effect)
GLXMA rating ([1]; dose 0.025 kg/ha): 4 (4 - Injury)
GLXMA rating ([1]; dose 0.1 kg/ha): 6 (6 - Herbicidal effect)
GLXMA rating ([1]; dose 0.4 kg/ha): 8 (8 - Approaching complete kill)
HORVW rating ([2]; dose 0.013 kg/ha): 1 (1 - Trace effect)
HORVW rating ([2]; dose 0.025 kg/ha): 2 (2 - Slight effect)
HORVW rating ([2]; dose 0.1 kg/ha): 3 (3 - Moderate effect)
HORVW rating ([2]; dose 0.4 kg/ha): 4 (4 - Injury)
ORYSA rating ([3]; dose 0.013 kg/ha): 1 (1 - Trace effect)
ORYSA rating ([3]; dose 0.025 kg/ha): 1 (1 - Trace effect)
ORYSA rating ([3]; dose 0.1 kg/ha): 2 (2 - Slight effect)
ORYSA rating ([3]; dose 0.4 kg/ha): 3 (3 - Moderate effect)
TRZAW rating ([4]; dose 0.013 kg/ha): 0 (0 - No effect)
TRZAW rating ([4]; dose 0.025 kg/ha): 0 (0 - No effect)
TRZAW rating ([4]; dose 0.1 kg/ha): 1 (1 - Trace effect)
TRZAW rating ([4]; dose 0.4 kg/ha): 4 (4 - Injury)
ZEAMX rating ([5]; dose 0.013 kg/ha): 1 (1 - Trace effect)
ZEAMX rating ([5]; dose 0.025 kg/ha): 1 (1 - Trace effect)
ZEAMX rating ([5]; dose 0.1 kg/ha): 3 (3 - Moderate effect)
ZEAMX rating ([5]; dose 0.4 kg/ha): 5 (5 - Definite injury)
GALAP rating ([6]; dose 0.013 kg/ha): 1 (1 - Trace effect)
GALAP rating ([6]; dose 0.025 kg/ha): 3 (3 - Moderate effect)
GALAP rating ([6]; dose 0.1 kg/ha): 5 (5 - Definite injury)
GALAP rating ([6]; dose 0.4 kg/ha): 8 (8 - Approaching complete kill)
LAMPU rating ([7]; dose 0.013 kg/ha): 8 (8 - Approaching complete kill)
LAMPU rating ([7]; dose 0.025 kg/ha): 8 (8 - Approaching complete kill)
LAMPU rating ([7]; dose 0.1 kg/ha): 9 (9 - Complete kill)
LAMPU rating ([7]; dose 0.4 kg/ha): 9 (9 - Complete kill)
SOLNI rating ([8]; dose 0.013 kg/ha): 6 (6 - Herbicidal effect)
SOLNI rating ([8]; dose 0.025 kg/ha): 8 (8 - Approaching complete kill)
SOLNI rating ([8]; dose 0.1 kg/ha): 8 (8 - Approaching complete kill)
SOLNI rating ([8]; dose 0.4 kg/ha): 8 (8 - Approaching complete kill)
STEME rating ([9]; dose 0.013 kg/ha): 4 (4 - Injury)
STEME rating ([9]; dose 0.025 kg/ha): 6 (6 - Herbicidal effect)
STEME rating ([9]; dose 0.1 kg/ha): 9 (9 - Complete kill)
STEME rating ([9]; dose 0.4 kg/ha): 9 (9 - Complete kill)
ALOMY rating ([10]; dose 0.025 kg/ha): 3 (3 - Moderate effect)
ALOMY rating ([10]; dose 0.1 kg/ha): 8 (8 - Approaching complete kill)
ALOMY rating ([10]; dose 0.4 kg/ha): 8 (8 - Approaching complete kill)
ECHCG rating ([11]; dose 0.013 kg/ha): 3 (3 - Moderate effect)
ECHCG rating ([11]; dose 0.025 kg/ha): 5 (5 - Definite injury)
ECHCG rating ([11]; dose 0.1 kg/ha): 8 (8 - Approaching complete kill)
ECHCG rating ([11]; dose 0.4 kg/ha): 8 (8 - Approaching complete kill)
SETVI rating ([12]; dose 0.013 kg/ha): 5 (5 - Definite injury)
SETVI rating ([12]; dose 0.025 kg/ha): 8 (8 - Approaching complete kill)
SETVI rating ([12]; dose 0.1 kg/ha): 9 (9 - Complete kill)
SETVI rating ([12]; dose 0.4 kg/ha): 9 (9 - Complete kill)
GLXMA rating ([13]; dose 0.03 kg/ha): 5 (5 - Definite injury)
GLXMA rating ([13]; dose 0.1 kg/ha): 8 (8 - Approaching complete kill)
GLXMA rating ([13]; dose 0.4 kg/ha): 8 (8 - Approaching complete kill)
HORVW rating ([14]; dose 0.03 kg/ha): 3 (3 - Moderate effect)
HORVW rating ([14]; dose 0.1 kg/ha): 3 (3 - Moderate effect)
HORVW rating ([14]; dose 0.4 kg/ha): 5 (5 - Definite injury)
ORYSA rating ([15]; dose 0.03 kg/ha): 2 (2 - Slight effect)
ORYSA rating ([15]; dose 0.1 kg/ha): 2 (2 - Slight effect)
ORYSA rating ([15]; dose 0.4 kg/ha): 4 (4 - Injury)
TRZAW rating ([16]; dose 0.03 kg/ha): 2 (2 - Slight effect)
TRZAW rating ([16]; dose 0.1 kg/ha): 3 (3 - Moderate effect)
TRZAW rating ([16]; dose 0.4 kg/ha): 5 (5 - Definite injury)
ZEAMX rating ([17]; dose 0.03 kg/ha): 2 (2 - Slight effect)
ZEAMX rating ([17]; dose 0.1 kg/ha): 3 (3 - Moderate effect)
ZEAMX rating ([17]; dose 0.4 kg/ha): 5 (5 - Definite injury)
ABUTH rating ([18]; dose 0.03 kg/ha): 4 (4 - Injury)
ABUTH rating ([18]; dose 0.1 kg/ha): 6 (6 - Herbicidal effect)
ABUTH rating ([18]; dose 0.4 kg/ha): 6 (6 - Herbicidal effect)
AMBEL rating ([19]; dose 0.03 kg/ha): 3 (3 - Moderate effect)
AMBEL rating ([19]; dose 0.1 kg/ha): 6 (6 - Herbicidal effect)
AMBEL rating ([19]; dose 0.4 kg/ha): 7 (7 - Good herbicidal effect)
IPOHE rating ([20]; dose 0.03 kg/ha): 8 (8 - Approaching complete kill)
IPOHE rating ([20]; dose 0.1 kg/ha): 9 (9 - Complete kill)
IPOHE rating ([20]; dose 0.4 kg/ha): 9 (9 - Complete kill)
LAMPU rating ([21]; dose 0.03 kg/ha): 7 (7 - Good herbicidal effect)
LAMPU rating ([21]; dose 0.4 kg/ha): 8 (8 - Approaching complete kill)
MATIN rating ([22]; dose 0.03 kg/ha): 5 (5 - Definite injury)
MATIN rating ([22]; dose 0.1 kg/ha): 7 (7 - Good herbicidal effect)
MATIN rating ([22]; dose 0.4 kg/ha): 7 (7 - Good herbicidal effect)
SOLNI rating ([23]; dose 0.03 kg/ha): 4 (4 - Injury)
SOLNI rating ([23]; dose 0.1 kg/ha): 5 (5 - Definite injury)
SOLNI rating ([23]; dose 0.4 kg/ha): 5 (5 - Definite injury)
ALOMY rating ([24]; dose 0.03 kg/ha): 3 (3 - Moderate effect)
ALOMY rating ([24]; dose 0.1 kg/ha): 6 (6 - Herbicidal effect)
ALOMY rating ([24]; dose 0.4 kg/ha): 8 (8 - Approaching complete kill)
DIGSA rating ([25]; dose 0.03 kg/ha): 5 (5 - Definite injury)
DIGSA rating ([25]; dose 0.1 kg/ha): 7 (7 - Good herbicidal effect)
DIGSA rating ([25]; dose 0.4 kg/ha): 8 (8 - Approaching complete kill)
ECHCG rating ([26]; dose 0.03 kg/ha): 6 (6 - Herbicidal effect)
ECHCG rating ([26]; dose 0.1 kg/ha): 8 (8 - Approaching complete kill)
ECHCG rating ([26]; dose 0.4 kg/ha): 9 (9 - Complete kill)
